Assay results from publication PMC12311110 (Nature Communications, 2025).
Like-named read-outs stand apart in the source and are kept apart here. One block for each molecule: values may come before it. No end group written: not given here.

Columns and labels:
[1] = test system: HeLa lines expressing the BioID1 chimeric versions; assay: GLUT1 and α5β1-integrin trafficking (lysosomal missorting/colocalization with LAMP1) after biotin incubation; type: cell-based, human; conditions: 24 h incubation with 50 µM biotin; HeLa lines expressing the BioID1 chimeras; confocal imaging
Method: To explore the robustness of the proximity labelling, we performed an initial biased identification of the biotinylated proteins using western analysis of target proteins. Although 12 h incubation with biotin was enough to label some interactors, we chose to perform all experiments using 24 h incubation to maximise the detection of weak and low abundance proximity proteins, and the potential to identify cargo proteins transiting through the sub-domains (Supplementary Fig. 2H). Importantly, we tested whether the actual biotin-labelling process had any detectable effect on Retromer and Retriever-dependent cargo sorting.
HeLa cells were seeded onto 13 mm coverslips. […]
Confocal microscope images were taken on a Leica SP5-II confocal laser scanning microscope attached to a Leica DMI 6000 inverted epifluorescence microscope or a Leica SP8 confocal laser scanning microscope attached to a Leica DM l8 inverted epifluorescence microscope (Leica Microsystems), with a 63x UV oil immersion lens, numerical aperture 1.4 (Leica Microsystems, 506192). […] The system operated in simultaneous twin-cam mode, and the desired fluorescence was selected through the use of either a 525/50 nm or 617/73 nm bandpass filter for the green or red channel, respectively. […]

[2] = molecular target: T1, hRetromer (Homo sapiens, UniProt O75436+Q96QK1+Q9UBQ0); assay: Isothermal titration calorimetry (ITC) of binding to Retromer; conditions: 25 °C; for Kd / -TΔS / ΔG / ΔH: ITC, mean of triplicate titrations
T1 construct: GST (pGEX4T-2, thrombin site plus linker) (N, cleaved yes); made in house; host or cells: E. coli BL21 (DE3)
Method: All the bacteria constructs were expressed in BL21 (DE3) cells using the autoinduction method. In brief, cultures grown in complex medium were incubated at 37 °C for 4 h, followed by overnight growth at 20 °C before harvesting for purification. […] In all cases, the soluble fractions clarified by centrifugation were loaded onto pre-equilibrated glutathione sepharose (GE healthcare) for initial purification. For Retromer, an additional Talon® resin purification step was performed to ensure the correct stoichiometry. GST-tag removal was carried out co-column overnight by adding thrombin for Human Retromer and PreScission protease for TBC1D13. The GST-tag removed fraction was further purified by size-exclusion chromatography (SEC) using a Superdex 200 (16/600) column (GE Healthcare) equilibrated with buffer containing 50 mM Tris-HCl pH 7.5, 200 mM NaCl, 2 mM β-ME.
The effect of cyclic peptide was assessed by pre-mixing 140 µM RT-D1 into 14 µM Retromer before titrating with 1 mM of native DENND4C1189-1206 peptide. For the binding experiment between Retromer and TBC1D13, 530 µM of TBC1D13 was titrated into 14 µM Retromer. The effect of the cyclic peptide was tested using the same concentration of RT-D1 as described above. All ITC experiments consisted of an initial 0.4 μl (not used in data processing), followed by 12 serial injections of 3.22 μl each with 180 sec intervals. The resulting titration data were integrated with the Malvern software package by fitting and normalised data to a single-site binding model. This yielded the thermodynamic parameters for all binding experiments, including the dissociation constant (Kd), enthalpy (∆H), Gibbs free energy (∆G) and -T∆S. The stoichiometry (N) was refined initially, and if the value was close to 1, then it was set to exactly 1.0 for calculation. The data presented are the mean of triplicate titrations for each experiment.

[3] = test system: colocalization with VPS35 or SNX1 in HeLa cells; assay: Immunofluorescence colocalization analysis (Manders/Pearson coefficients); type: cell-based, human; conditions: mean of the 3 experiment averages (n = 3)
Method: HeLa cells were seeded onto 13 mm coverslips. Cells were fixed in 4% (v/v) paraformaldehyde (PFA) (Pierce, 28906) in PBS for 20 min and permeabilised in 0.1% (v/v) Triton X-100 in PBS (Sigma-Aldrich), or in 0.1% (w/v) saponin (sigma-Aldrich) in PBS when labelling LAMP1 compartments, for 5 min followed by blocking with 2% (w/v) BSA (Sigma, 05482) in PBS for 30 min. Coverslips were stained with primary antibodies for 1 hr followed by secondary antibodies for 30 min, then mounted onto glass microscope slides with Fluoromount-G (Invitrogen, 00-4958-02).
Confocal microscope images were taken on a Leica SP5-II confocal laser scanning microscope attached to a Leica DMI 6000 inverted epifluorescence microscope or a Leica SP8 confocal laser scanning microscope attached to a Leica DM l8 inverted epifluorescence microscope (Leica Microsystems), with a 63x UV oil immersion lens, numerical aperture 1.4 (Leica Microsystems, 506192). For the Leica SP8 microscope, ‘lightning’ adaptive image restoration was used to generate deconvolved representative images. Colocalization analysis was performed using Volocity 6.3 software (PerkinElmer) or JACOP plugin from ImageJ-FIJI software. Spinning disk high-resolution images were acquired on an IXplore SpinSR system (Olympus) consisting of an IX83 microscope frame with a CO2 and temperature chamber (Olympus), SoRa W1 twin cam spinning disk unit (Yokogawa) and two back-thinned Fusion BT sCMOS cameras (Hamamatsu). A 488 nm or 561 nm laser provided excitation for the green and red channels, respectively. The SoRa disk with an additional 3.2x magnification changer was used for imaging with excitation light focused to the sample using a 60x/1.4NA oil immersion lens. The system operated in simultaneous twin-cam mode, and the desired fluorescence was selected through the use of either a 525/50 nm or 617/73 nm bandpass filter for the green or red channel, respectively.

[4] = 140 µM RT-D1 pre-mixed into 14 µM Retromer, then titrated with 1 mM native DENND4C1189-1206 peptide
[5] = 1 mM DENND4C1189-1206 peptide (native or L1204A) titrated into 14 µM Retromer

Molecule: O=C(O)CCCC[C@@H]1SC[C@@H]2NC(=O)N[C@@H]21 [biotin]
Effect of biotin labelling on trafficking of GLUT1 or α5β1-integrin [1]: did not detect significant changes

Molecule: AKVVQREDVETGLDPLSL [hDENND4C1189-1206]
Kd ([2]; Microcal PEAQ-ITC, 1 mM DENND4C1189-1206 peptide (native or L1204A) titrated into 14 µM Retromer, single-site binding model, read-out: Kd): 15.4 ± 0.85 µM

Molecule: GFP-DENND4C WT
GFP-DENND4C dots/section [3]: 55.5 | M1 GFP-DENND4C/VPS35 (Manders coefficient) [3]: 0.4133 | M2 GFP-DENND4C/VPS35 (Manders coefficient) [3]: 0.28

Molecule: Ac-yIIDTPLGVFLSSLKRC-NH2 [RT-D1, reference compound]
Effect of competing RT-D1 on binding of the DENND4C PL-containing peptide ([2]; ITC competition, 140 µM RT-D1 pre-mixed into 14 µM Retromer, 1 mM DENND4C1189-1206 peptide titrated): blocked

Molecule: GFP-DENND4C L1201A
GFP-DENND4C dots/section [3]: 11.1 | M1 GFP-DENND4C/VPS35 (Manders coefficient) [3]: 0.06333 | M2 GFP-DENND4C/VPS35 (Manders coefficient) [3]: 0.06433

Further lines, results first:

-TΔS [2, 4]: No binding detected | Kd [2, 4]: No binding detected | ΔG [2, 4]: No binding detected | ΔH [2, 4]: No binding detected
Molecule: hDENND4C1189-1206 + RT-D1: native DENND4C1189-1206 peptide titrated into Retromer pre-mixed with 140 µM RT-D1 (AKVVQREDVETGLDPLSL; premixed with Retromer and RT-D1; UniProt Q5VZ89 1189-1206, looked up, fragment)

-TΔS [2, 5]: No binding detected | ΔG [2, 5]: No binding detected | ΔH [2, 5]: No binding detected | Kd ([2]; Microcal PEAQ-ITC, 1 mM DENND4C1189-1206 peptide (native or L1204A) titrated into 14 µM Retromer, single-site binding model): No binding detected
Molecule: AKVVQREDVETGLDPASL [hDENND4C1189-1206 L1204A]
